Paper PMC9287337 (Scientific Reports, 2022)

Assays:
Format in all cases: cell-based, mouse
C2C12 cells = test: Live cell count (acridine orange/propidium iodide); conditions: 24 h; for Average increase in number of cells compared to control: average over 0.01–10 µM
Procedure: For the concentrations tested, SY-LB-35 increased the number of cells by an average of approximately 40% (Fig. 4A) and SY-LB-57 enhanced cell numbers to an average increase of 70% compared to the control (Fig. 4B). […] Moreover, both novel compounds induce a substantial proliferative effect in C2C12 cells.
C2C12 mouse myoblast cells (ATCC®, Manassas, VA, USA) were maintained in complete growth media (DMEM/10% FBS/1X Penicillin/Streptomycin/Glutamine solution (PSG)) at 37 °C in 5% CO2. DMEM media (Dulbecco’s Modified Eagle’s Medium with high glucose and L-glutamine and without sodium pyruvate) was from Caisson Labs (Smithfield, UT, USA). FBS was from Atlanta Biologicals (Flowery Branch, GA, USA). To determine the cell concentration, 18 µL cell suspension was mixed with 2 µL Acridine orange/Propidium iodide stain (Logos Biosystems, Annandale, VA, USA). Next, the cell concentration and percent viability were determined from 10 µL stained cells using the Luna-FL™ Dual Fluorescence Cell Counter from Logos Biosystems. For cell counts following treatment with SY-LB-35 or SY-LB-57, C2C12 cells (500 µL) were seeded into 24-well plates at 1 × 10^5 cells/mL, grown to 80% confluency, serum-starved for 16–18 h using Serum-Starvation Medium (SS medium: DMEM/1X Penicillin/Streptomycin solution (PS)) and treated for 24 h with the novel compounds. The treated cells were then collected by trypsinization, pelleted at 2000 rpm for 3 min at RT, resuspended and counted.

PI3K enzyme = test: PI3K ELISA on PI3K immunoprecipitated from treated cells; conditions: 10 µM, 15 min; for Amount of PIP3 produced by PI3K enzyme: control 0.61 pmol
Procedure: PI3K enzyme was immunoprecipitated and processed in a PI3K ELISA (Fig. 7B). […] The enzyme activity is expressed as the amount of product (PIP3) generated in each sample by the PI3K enzyme per minute of reaction.
C2C12 cells were seeded in 35-mm dishes at 7 × 10^4 cells/mL and incubated at 37 °C in 5% CO2 to reach 80% confluency. […] Cells (~ 10^6) per treatment were collected to prepare whole cell lysates followed by exposure to three freeze/thaw cycles in liquid nitrogen. The samples were centrifuged and PI3K enzyme was immunoprecipitated with a mouse monoclonal anti-PI3K p55 γ antibody ((E-9), Santa Cruz Biotechnology, Dallas, TX, USA) for 1 h at 4 °C with gentle rocking and the immune complexes were collected overnight on a rocking platform at 4 °C with Dynabeads™ Protein A (Life Technologies, Carlsbad, CA, USA). The next day, the immunoprecipitated PI3K enzyme was collected by centrifugation processed for a PI3K ELISA (Echelon Biosciences, Salt Lake, City, UT, USA) according to the manufacturer’s instructions. Standard solutions of PIP3 (0, 0.22, 0.67, 2, 6, 18, and 54 pmol) were added to kinase reactions using recombinant PI3K enzyme (Echelon Biosciences, Salt Lake, City, UT, USA) and used to generate a standard curve for production of PIP3. The optical density of the PIP3 standards and the reactions containing immunoprecipitated PI3K from treated samples was measured at 450 nm.

p-JNK = test: Western blot of p-JNK; conditions: 0.01–10 µM, 15 min
Procedure: Whole cell lysates were prepared from the treated cultures for Western blot analysis.
C2C12 cells (3 mL) were seeded into 35 mm dishes at 7.5 × 10^4 cells/mL in complete growth medium, incubated to reach 80% confluence and serum-starved for 16–18 h. […] Thereafter, the cultures were washed with ice-cold 1X TBS for 2 min. Lysis Buffer (Cell Signaling Technology, Danvers, MA, USA) supplemented with 1 mM PMSF (phenylmethylsulphonyl fluoride) was added to the cultures and whole cell lysates were prepared.
Laemmli sample buffer (4X) was added to the whole cell lysates (20 µg) to a final concentration of 1X and heated at 100 °C for 5 min. The samples were immediately cooled on ice for 5 min and centrifuged at 9500 rpm for 2 min at RT. The samples and the Precision Plus Protein Standard (5 µL; Bio-Rad, Hercules, CA, USA) were loaded on 12% SDS polyacrylamide gels. […] Finally, the blots were developed using SuperSignal ™ West Femto HRP Substrate solutions (Thermo Scientific, Rockford, IL, USA) and analysed using the Omega Lum™ G Imaging System (San Francisco, CA, USA). Quantification of chemiluminescent signals was carried out using ImageJ (Image Processing and Analysis in Java 1.8.0_112).

SMILES	Cell number (C2C12 cells; 0.01 µM)	Cell number (C2C12 cells; 0.1 µM)	Cell number (C2C12 cells; 1 µM)	Cell number (C2C12 cells; 10 µM)	Average increase in number of cells compared to control (C2C12 cells)	PIP3 produced, higher compared to control untreated cells (PI3K enzyme) [%]	Amount of PIP3 produced by PI3K enzyme (PI3K enzyme) [pmol]	p-JNK level (p-JNK)
Oc1ccc2[nH]c(-c3nc4ccccc4[nH]3)cc2c1 [SY-LB-35]	6.8 × 10^5 cells	6.6 × 10^5 cells	6.8 × 10^5 cells	6.4 × 10^5 cells	approximately 40%	26	0.77	stimulated increases
COc1ccc2[nH]c(-c3nc4ccccc4[nH]3)cc2c1 [SY-LB-57]	7.4 × 10^5 cells	6.5 × 10^5 cells	7.2 × 10^5 cells	6.0 × 10^5 cells	70%	26	0.77	stimulated increases
